These results are taken from patent publication US20110251220A1, “Pharmaceutical compositions comprising gamma secretase modulators” (priority 2008, published 2011).

Broadly, the inhibition is how much of the control response was suppressed. A high value points to a strong effect.

For test [1], the system named is OPM-2 cells. The test can be described thus: Apoptosis by AnnexinV-FITC/PI staining, OPM-2. The class given is cell-based, human. As to conditions: for cell death: OPM-2, 24 h or 48 h, single agent. On the procedure: (§1) The compound according to example 1, hereinafter referred to as GSI15, (compound RH02015SC, Maybridge, Acros Organics, Geel, Belgium) was freshly dissolved as 26 mM stock solution in Dimethylsulfoxide (DMSO). Multiple myeloma therapeutics used were melphalan (marketed as Alkeran®, GlaxoSmithKline, Munich, Germany) and bortezomib (marketed as Velcade®, Janssen-Cilag, Neuss, Germany). Melphalan was freshly dissolved at 10 mg/ml in 0.9% NaCl-solution. Bortezomib was freshly dissolved at 100 ng/ml in 0.9% NaCl solution. Gamma Secretase Inhibitor (GSI) treatment for apoptosis assessment by AnnexinV/PI staining, cell cycle analysis and coculture experiments was performed in 6-well plates. GSI15 stock solution was added directly to the cell suspension. GSI treatment for assaying proliferation was performed in 96-well plates. 10,000 cells per well were seeded in 50 μl medium per well before 50 μl of a 2× solution of GSI15 prediluted in medium were added per well. Melphalan and bortezomib treatment as well as their combination with GSI15 for assaying apoptosis by AnnexinV/PI staining was done in 6-well plates. All inhibitors were added directly to the cells in 6-well plates.
For cell cycle analysis 2×10^5 cells were spun down, medium was aspirated and cells washed with PBS. Cells were then resuspended in 250 μl PBS. 1 ml ice-cold 70% ethanol was added, followed by overnight incubation at −20° C. Cells were spun down, the pellet washed with PBS and then resuspended in 200 μl PBS containing 0.15 mg/ml RNaseA and 30 μg/ml propidium iodide (PI). After 10 minutes incubation in the dark at room temperature, cells were analyzed by flow cytometry. The amount of apoptotic cells was determined by AnnexinV/propidium iodide staining using Human AnnexinV-FITC Kit (Bender Medsystems, Vienna, Austria), according to manufacturer's protocol. Briefly, 2×10^5 cells were spun down and washed with PBS, followed by 10 minutes incubation in binding buffer containing AnnexinV-FITC conjugate. Cells were then spun down again, resuspended in binding buffer containing PI and analyzed by flow cytometry.

For test [2], the system named is MM cells. Nature of the test: Proliferation assay (CellTiter-Glo), concentration of 50% growth inhibition. Type of test: cell-based. As to conditions: Homo sapiens; read-out: Concentration at which 50% cell growth inhibition was observed. On the procedure:
Human MM cell lines used were as follows: NCI-H929, OPM-2, LP-1, RPMI-8226, U266 (DSMZ, Braunschweig, Germany). Cell lines were cultured in RPMI 1640 medium (Biochrom, Berlin, Germany) supplemented with 10% heat-inactivated fetal calf serum (FCS, Gibco, Karlsruhe, Germany), 1 mM sodium pyruvate and 100 units/ml penicillin and 100 μg/ml streptomycin (Gibco). Human osteoclasts were obtained as described in the reference of Zavrski I, Krebbel H, Wildemann B, et al. Proteasome inhibitors abrogate osteoclast differentiation and osteoclast function. Biochem Biophys Res Commun. 2005; 333:200-205. Briefly, peripheral blood mononuclear cells (PBMC) were isolated from whole blood of healthy volunteers, using a Ficoll-Hypaque density gradient. The adherent fraction of the isolated mononuclear cells was cultured for 21 days in MEM medium (Sigma-Aldrich Chemie, Taufkirchen, Germany) supplemented with 10% FCS, 100 U/ml penicillin, 100 μg/ml streptomycin, 50 ng/ml M-CSF, and 25 ng/ml RANKL (osteoclastogenic medium), before coculture experiments and treatment with the inventive compounds started. Human osteoblasts were obtained according to Robey P G, Termine J D. Human bone cells in vitro. Calcif Tissue Int. 1985; 37:453-460 as described in Hecht M, Heider U, Kaiser M, von Metzler I, Sterz J, Sezer O. Osteoblasts promote migration and invasion of myeloma cells through upregulation of matrix metalloproteinases, urokinase plasminogen activator, hepatocyte growth factor and activation of p38 MAPK. Br J Haematol. 2007; 138: 446-458. Briefly, trabecular bone specimens from patients without malignant disease undergoing knee or hip surgery were minced and washed to remove bone marrow cells. The bone fragments were resuspended in Dulbecco's modified Eagle's medium (DMEM)/HAM's F12 medium (Biochrom, Berlin, Germany) supplemented with 10% FCS and cultured in tissue culture flasks until a confluent cell monolayer was obtained. Culturing of functional osteoblasts was confirmed by alkaline phosphatase (ALP) staining (kit from Sigma, USA), realtime RT-PCR analysis of expression of osteoblast markers (ALP, osteocalcin) and by von-Kossa staining before coculture and treatment experiments were started.
as §1, with “Melphalan and bortezomib treatment as well as their combination with GSI15 for assaying apoptosis by AnnexinV/PI staining was done in 6-well plates. All inhibitors were added directly to the cells in 6-well plates.” left out
For assaying proliferation/viability of cells CellTiter-Glo Luminescent Cell Viability Assay (Promega, Mannheim, Germany) was used. In this assay the number of viable cells at a given time point is determined by quantification of ATP present, which serves as a measure of metabolically active cells. […]
(Cellular ATP, detected with luciferase, serves as a proxy for viable cell number.)

The test system of test [3] is human podocyte cell line. The test can be described thus: TGFβ-induced apoptosis in human podocyte cell line (Cell Death Detection ELISA). Type of test: cell-based. As to the method: The percentage of the apoptotic cells was determined after 24 hours using the Cell Death Detection ELISA (Roche Diagnostics, Mannheim, Germany) according to the manufaturer's protocol.
A general note: An ELISA detects its analyte on a solid surface through an enzyme-linked reagent.

In test [4] the test system is male Sprague-Dawley rats. Nature of the test: PAN-model of albuminuric glomerular disease. The class given is in vivo, rat. As to conditions: day 5, 500 μg/100 g rat i.p. once per day, compared to PAN alone. As to the method: For the in vivo studies male Sprague-Dawley rats were purchased from Charles River and treated with puromycin aminoglycoside (PAN) to induce albuminuric glomerular disease as described previously (Niranjan et al., “The Notch pathway in podocytes plays a role in the development of glomerular disease.” Nat. Med. 14: 290-298, 2008). Rats were injected PAN (150 mg/kg) once. The test compounds were administered intraperitoneally (500 μg/100 g rat) once per day (n=4 animals per group). Injection of test compounds were started one day after PAN injection. All studies were performed in accordance with the European Union normative. As a positive control one group of rats received gamma secretase inhibitor DAPT.
Urinary albumine was measured at the indicated days as described previously (Sanchez-Nino et al., “The MIF receptor CD74 in diabetic podocyte injury”. J. Am. Soc. Nephrol. 20: 353-362, 2009). For total protein measurement urine samples were centrifuged and pellets were diluted in distilled water. Exton reagent (230 mM sulfosalic acid, 1.4 M sodium sulfate) was added and after 10 minutes absorbance was measured at 620 nm.

In the case of `N[C@@H](Cc1ccc(N(CCCl)CCCl)cc1)C(=O)O` [melphalan], the apoptotic cells in test [1] (OPM-2, 50 μM melphalan alone, 24 h) came out at 32%. The cell death entry in test [1] is recorded as “dose-dependently triggered cell death”. Regarding `CC(Sc1nc(=O)cc(N)n1CCc1ccccc1)C(=O)Nc1cccc(Cl)c1` (stereo not shown) [Example 4, 2-(6-amino-4-oxo-1-phenethyl-1,4-dihydropyrimidin-2-ylthio)-N-(3-chlorophenyl)propanamide], the IC50 in test [2] amounted to 20 µM. Take `CC(C)(C)c1ccc(Oc2ncccc2NS(=O)(=O)c2ccccc2C(F)(F)F)cc1` [Example 2, N-(2-(4-tert-butylphenoxy)pyridin-3-yl)-2-(trifluoromethyl)benzenesulfonamide]: the IC50 in test [2] was found to be 30 µM. Moreover, the “effect in podocyte cell culture experiments” value in test [3] is given as “positive effect”. Testing at 3 µM in test [3] (Homo sapiens, 3 μM, compared to TGFβ alone, 24 hours) gave an inhibition of 27%. In addition, in test [3] (Homo sapiens, 10 μM, compared to TGFβ alone, 24 hours), the inhibition at 10 µM turned out to be 27%. For the same compound, in test [4], the inhibition of albuminuria is listed as 42% and the inhibition of proteinuria stood at 37%. For `Nc1cc(=O)nc(SCC(=O)Nc2ccc(Cl)cc2)n1CCc1ccccc1` [Example 5, 2-(6-amino-4-oxo-1-phenethyl-1,4-dihydropyrimidin-2-ylthio)-N-(4-chlorophenyl)acetamide], the IC50 in test [2] was found to be 20 µM. In turn, `C[C@H](NC(=O)Cc1cc(F)cc(F)c1)C(=O)N[C@H](C(=O)OC(C)(C)C)c1ccccc1` [DAPT, reference compound] yielded an inhibition of apoptosis in test [3] (1 μM, compared to TGFβ alone, 24 hours) of 37%. For the compound `Cc1ccc(Sc2ncccc2NS(=O)(=O)c2ccc(Cl)cc2)cc1` [Example 3, 4-chloro-N-(2-(p-tolylthio)pyridin-3-yl)benzenesulfonamide], the IC50 in test [2] was found to be 30 µM. With `CC(C)C[C@H](NC(=O)[C@H](Cc1ccccc1)NC(=O)c1cnccn1)B(O)O` [bortezomib], the cell death result in test [1] is “dose-dependently triggered cell death”.
